Source: the NIST ThermoML archive (doi:10.1021/je700621d)
Numbers after ± are expanded uncertainties.

Columns and labels:
[1] = xn = mol fraction of the nth substance listed; settings: 298 K; for surface tension liquid-gas: Pendant drop shape; for mass density: 101 kPa, Liquid, Vibrating tube method
[2] = for mass density: Liquid, Vibrating tube method; for surface tension liquid-gas: Pendant drop shape

CCCC[n+]1ccn(C)c1.O=S(=O)([N-]S(=O)(=O)C(F)(F)F)C(F)(F)F + CCCCO
[1]
Settings	mass density [kg/m3]	surface tension liquid-gas [mN/m]
x1 = 0.0941	962.2 ± 0.2	23.98 ± 0.27
x1 = 0.2025	1087.1 ± 0.5	23.88 ± 0.29
x1 = 0.2045	1089 ± 0.5	23.8 ± 0.29
x1 = 0.306	1172.6 ± 1.1	24.16 ± 0.33
x1 = 0.3064	1172.5 ± 1.1	24.25 ± 0.33
x1 = 0.3964	1230.5 ± 1.8	25.17 ± 0.37
x1 = 0.5002	1283.6 ± 3	26.79 ± 0.45
x1 = 0.5977	1323.5 ± 4.5	28.32 ± 0.52
x1 = 0.6848	1354.8 ± 6.1	29.56 ± 0.6
x1 = 0.8016	1388.6 ± 8.7	30.96 ± 0.7
x1 = 0.8986	1413.4 ± 11	31.94 ± 0.79
x1 = 1	1436.4 ± 14	32.8 ± 0.88

CCOS(=O)(=O)[O-].CCn1cc[n+](C)c1 [1-ethyl-3-methylimidazolium ethyl sulfate]
[2], 101.33 kPa
Settings	mass density [kg/m3]
278.15 K	1255.1 ± 11
288.15 K	1248.1 ± 11
298.15 K	1241.1 ± 11
308.15 K	1234.2 ± 11
318.15 K	1227.3 ± 11
328.15 K	1220.6 ± 10

[2]
Settings	surface tension liquid-gas [mN/m]
278.75 K	46.7 ± 1.2
288.15 K	46.04 ± 1.2
298.15 K	45.43 ± 1.2
308.15 K	44.72 ± 1.2
318.15 K	43.74 ± 1.2
328.15 K	43.37 ± 1.2

CCCCCCCC[N+](C)(CCCCCCCC)CCCCCCCC.O=S(=O)([N-]S(=O)(=O)C(F)(F)F)C(F)(F)F
[2], 101.33 kPa
Settings	mass density [kg/m3]
278.15 K	1119.8 ± 8.8
288.15 K	1112.2 ± 8.7
298.15 K	1104.6 ± 8.5
308.15 K	1097.2 ± 8.4
318.15 K	1089.6 ± 8.3
328.15 K	1082.1 ± 8.2

[2]
Settings	surface tension liquid-gas [mN/m]
278.75 K	29.65 ± 0.82
288.15 K	28.92 ± 0.8
298.15 K	27.93 ± 0.77
308.15 K	27.02 ± 0.75
318.15 K	26.56 ± 0.74
328.15 K	26.03 ± 0.73

CCCCO [butan-1-ol]
Settings	surface tension liquid-gas [mN/m]
[2], 298 K	23.96 ± 0.26

Settings	mass density [kg/m3]
[2], 298 K, 101.3 kPa	805.3 ± 0.2

CCCC[N+](C)(C)C.O=S(=O)([N-]S(=O)(=O)C(F)(F)F)C(F)(F)F [butyltrimethylammonium bis(trifluoromethylsulfonyl)imide]
[2], 101.33 kPa
Settings	mass density [kg/m3]
278.15 K	1412.3 ± 14
288.15 K	1403 ± 14
298.15 K	1394 ± 14
308.15 K	1385 ± 14
318.15 K	1376.1 ± 13
328.15 K	1367.3 ± 13

[2]
Settings	surface tension liquid-gas [mN/m]
278.75 K	33.31 ± 0.91
288.15 K	33.04 ± 0.9
298.15 K	32.46 ± 0.89
308.15 K	32 ± 0.88
318.15 K	31.21 ± 0.86
328.15 K	30.64 ± 0.84

CCCO [propan-1-ol]
Settings	surface tension liquid-gas [mN/m]
[2], 298 K	23.34 ± 0.26

Settings	mass density [kg/m3]
[2], 298 K, 101.3 kPa	799 ± 0.2

CCCCO [butan-1-ol] + CCCC[n+]1ccn(C)c1.O=S(=O)([N-]S(=O)(=O)C(F)(F)F)C(F)(F)F
[1], x2 = 0
Settings	mass density [kg/m3]	surface tension liquid-gas [mN/m]
–	805.3 ± 0.2	23.96 ± 0.26

CCn1cc[n+](C)c1.O=S(=O)([N-]S(=O)(=O)C(F)(F)F)C(F)(F)F
[2], 101.33 kPa
Settings	mass density [kg/m3]
278.15 K	1539.1 ± 17
288.15 K	1528.9 ± 16
298.15 K	1518.7 ± 16
308.15 K	1508.7 ± 16
318.15 K	1498.6 ± 16
328.15 K	1488.7 ± 16

[2]
Settings	surface tension liquid-gas [mN/m]
278.75 K	37.31 ± 1
288.15 K	36.58 ± 0.99
298.15 K	35.71 ± 0.97
308.15 K	35.17 ± 0.96
318.15 K	34.68 ± 0.94
328.15 K	34.25 ± 0.93

CCCC[n+]1ccn(C)c1.O=S(=O)([N-]S(=O)(=O)C(F)(F)F)C(F)(F)F
[2], 101.33 kPa
Settings	mass density [kg/m3]
278.15 K	1456.1 ± 15
288.15 K	1446.2 ± 15
298 K	1436.4 ± 15
298.15 K	1436.6 ± 15
308.15 K	1427 ± 14
318.15 K	1417.4 ± 14
328.15 K	1407.9 ± 14

[2]
Settings	surface tension liquid-gas [mN/m]
278.75 K	33.8 ± 0.92
288.15 K	33.37 ± 0.91
298 K	32.8 ± 0.88
298.15 K	32.8 ± 0.9
308.15 K	32.32 ± 0.88
318.15 K	31.89 ± 0.87
328.15 K	31.28 ± 0.86

CCCO [propan-1-ol] + CCCC[n+]1ccn(C)c1.O=S(=O)([N-]S(=O)(=O)C(F)(F)F)C(F)(F)F
[1], x2 = 0
Settings	mass density [kg/m3]	surface tension liquid-gas [mN/m]
–	799 ± 0.2	23.34 ± 0.26

CCCC[n+]1ccn(C)c1.O=S(=O)([N-]S(=O)(=O)C(F)(F)F)C(F)(F)F + CCCO
[1]
Settings	mass density [kg/m3]	surface tension liquid-gas [mN/m]
x1 = 0.035	878.2 ± 0.1	23.6 ± 0.26
x1 = 0.131	1036.2 ± 0.3	24.16 ± 0.28
x1 = 0.202	1116.5 ± 0.5	24.73 ± 0.3
x1 = 0.296	1194.1 ± 1	25.77 ± 0.34
x1 = 0.373	1243.5 ± 1.7	26.47 ± 0.38
x1 = 0.517	1311.8 ± 3.4	28.6 ± 0.48
x1 = 0.664	1361.9 ± 5.8	29.89 ± 0.59
x1 = 0.685	1368 ± 6.2	30.54 ± 0.61
x1 = 0.884	1422 ± 11	32.49 ± 0.79
x1 = 1	1436.4 ± 14	32.8 ± 0.88

CCCCCCCCOS(=O)(=O)[O-].CCCCn1cc[n+](C)c1 [1-butyl-3-methylimidazolium octyl sulfate]
[2], 101.33 kPa
Settings	mass density [kg/m3]
278.15 K	1077.3 ± 8.1
288.15 K	1070.4 ± 8
298.15 K	1063.8 ± 7.9
308.15 K	1057.1 ± 7.8
318.15 K	1050.8 ± 7.7
328.15 K	1044.3 ± 7.6

[2]
Settings	surface tension liquid-gas [mN/m]
278.75 K	28.08 ± 0.78
288.15 K	27.29 ± 0.76
298.15 K	26.71 ± 0.74
308.15 K	26.27 ± 0.73
318.15 K	25.72 ± 0.72
328.15 K	24.99 ± 0.7
